The numbers were not newly measured in article PMC9781794, “Polyphosphazene-Based Biomaterials for Biomedical Applications” (International Journal of Molecular Sciences, 2022), which cites them from elsewhere.

In data set [1] the test system is bacterial species (Gram-positive, Gram-negative, and Mycobacteria). Details: method as in PMID 36040292. The settings on record: both Gram-positive and Gram-negative strains; ref [108].
The conditions of data set [2]: buffer.

For “[N3P3(NHCy)6{Au(PPh3)}2{Ag(PPh3)}](NO3)3 [Sample 13]”, in data set [1], the anti-bacterial activity entry is “excellent” and the anti-bacterial potency range entry is “nanomolar range”.

With valine, in data set [2], the “degradation half-life (T1/2)” value is on record as ~ 1 year.
